ChEMBL document CHEMBL1201862, “PubChem BioAssay data set” (2004)
The source made the active and inactive calls.

Key:
[1] = target: Estrogen receptor beta (Homo sapiens, UniProt Q92731);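 note: recombinant ER-beta bound to coactivator SRC1 peptide in presence of estradiol agonist; inhibitors block coactivator peptide binding and lower the FRET signal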
[2] = system: Escherichia coli; assay: microbe, parasite or virus in culture
[3] = target: T1, High affinity choline transporter 1 (Homo sapiens, UniProt Q9GZV3); assay: human choline transporter blockers, potency – cell-based, 5-point CRC, membrane potential dye, dose response (AID 504840); type: functional
T1 sequence (Q9GZV3 whole entry): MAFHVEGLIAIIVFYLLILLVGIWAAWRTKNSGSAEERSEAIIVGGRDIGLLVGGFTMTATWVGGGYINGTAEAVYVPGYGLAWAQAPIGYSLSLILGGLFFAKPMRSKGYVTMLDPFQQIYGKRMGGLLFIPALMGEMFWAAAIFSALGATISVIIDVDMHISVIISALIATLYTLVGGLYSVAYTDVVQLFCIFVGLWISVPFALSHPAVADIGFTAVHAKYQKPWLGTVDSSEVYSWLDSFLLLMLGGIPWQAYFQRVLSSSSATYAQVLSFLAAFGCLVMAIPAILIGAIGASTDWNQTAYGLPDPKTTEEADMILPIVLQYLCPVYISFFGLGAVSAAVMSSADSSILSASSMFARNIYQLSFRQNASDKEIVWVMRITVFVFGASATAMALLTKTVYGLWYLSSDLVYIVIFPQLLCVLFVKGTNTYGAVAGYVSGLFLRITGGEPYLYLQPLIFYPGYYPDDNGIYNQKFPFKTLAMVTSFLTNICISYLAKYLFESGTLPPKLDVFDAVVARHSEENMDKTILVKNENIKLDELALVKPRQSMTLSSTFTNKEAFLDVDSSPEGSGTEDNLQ

[4] = target: T1, High affinity choline transporter 1; assay: human choline transporter blockers, potency – cell-based, 10-point CRC, membrane potential dye, dose response (AID 588401); type: functional;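 note: membrane potential dye fluorescence of choline-evoked depolarization via CHT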
[5] = intracellular Trypanosoma cruzi inhibitors in host cells – cell-based, plate reader, cherry-pick samples, set 3, dose response (AID 651818); type: functional;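 note: compounds incubated with infected cells for about four days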
[6] = target: T2, Bcl-2-related protein A1 (Mus musculus, UniProt Q07440); type: functional;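 note: confirmatory dose–response counterscreen on Bfl-1, used to check hits from a UBC13 polyubiquitin inhibitor campaign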
T2 sequence (Q07440 whole entry): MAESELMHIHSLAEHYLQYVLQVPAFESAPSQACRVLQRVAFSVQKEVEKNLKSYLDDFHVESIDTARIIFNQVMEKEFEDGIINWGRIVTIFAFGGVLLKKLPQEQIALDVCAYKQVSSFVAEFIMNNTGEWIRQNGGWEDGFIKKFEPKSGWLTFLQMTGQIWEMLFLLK

[7] = target: T3, Ubiquitin-conjugating enzyme E2 N (Homo sapiens, UniProt P61088); type: functional
T3 sequence (P61088 whole entry): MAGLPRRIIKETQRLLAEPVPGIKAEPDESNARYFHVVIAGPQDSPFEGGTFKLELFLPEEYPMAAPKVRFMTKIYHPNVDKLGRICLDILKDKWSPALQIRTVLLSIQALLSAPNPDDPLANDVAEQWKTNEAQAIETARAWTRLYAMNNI

[8] = target: T3, Ubiquitin-conjugating enzyme E2 N; type: functional; remark: listed apart in the source
[9] = target: T4, Long-chain-fatty-acid--AMP ligase FadD28 (Mycobacterium tuberculosis, UniProt P9WQ59); assay: Fluorescence polarization aasay to screen for inhibitors that compete for the binding of FadD28 to a bisubstrate Measured in Biochemical System Using Plate Reader - 2147-01_Inhibitor_Dose_CherryPick_Activity.; type: functional, Mycobacterium tuberculosis H37Rv
T4 sequence (P9WQ59 whole entry): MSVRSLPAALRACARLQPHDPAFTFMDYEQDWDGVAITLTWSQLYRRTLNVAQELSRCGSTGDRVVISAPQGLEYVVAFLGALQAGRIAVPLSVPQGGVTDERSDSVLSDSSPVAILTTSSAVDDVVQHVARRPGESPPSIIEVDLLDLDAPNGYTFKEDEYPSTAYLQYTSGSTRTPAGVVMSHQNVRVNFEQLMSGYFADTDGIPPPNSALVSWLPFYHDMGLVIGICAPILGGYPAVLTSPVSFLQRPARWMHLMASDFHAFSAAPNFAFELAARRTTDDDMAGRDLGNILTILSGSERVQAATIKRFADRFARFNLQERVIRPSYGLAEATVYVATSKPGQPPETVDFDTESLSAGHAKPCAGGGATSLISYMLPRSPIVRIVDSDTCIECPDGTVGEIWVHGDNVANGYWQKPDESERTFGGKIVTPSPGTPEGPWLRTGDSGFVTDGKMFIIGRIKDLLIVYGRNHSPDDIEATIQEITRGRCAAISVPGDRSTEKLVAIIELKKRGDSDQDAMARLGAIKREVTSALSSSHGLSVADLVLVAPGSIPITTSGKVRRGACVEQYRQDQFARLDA

[10] = target: Ras and Rab interactor 1/Tyrosine-protein kinase ABL1 (Homo sapiens, UniProt P00519+Q13671); type: functional;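 note: biochemical TR-FRET dose-response test measuring inhibition of binding between Rin1 and Abl proteins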
[11] = target: T5, Apoptotic protease-activating factor 1 (Homo sapiens, UniProt O14727); type: functional
T5 sequence (O14727 whole entry): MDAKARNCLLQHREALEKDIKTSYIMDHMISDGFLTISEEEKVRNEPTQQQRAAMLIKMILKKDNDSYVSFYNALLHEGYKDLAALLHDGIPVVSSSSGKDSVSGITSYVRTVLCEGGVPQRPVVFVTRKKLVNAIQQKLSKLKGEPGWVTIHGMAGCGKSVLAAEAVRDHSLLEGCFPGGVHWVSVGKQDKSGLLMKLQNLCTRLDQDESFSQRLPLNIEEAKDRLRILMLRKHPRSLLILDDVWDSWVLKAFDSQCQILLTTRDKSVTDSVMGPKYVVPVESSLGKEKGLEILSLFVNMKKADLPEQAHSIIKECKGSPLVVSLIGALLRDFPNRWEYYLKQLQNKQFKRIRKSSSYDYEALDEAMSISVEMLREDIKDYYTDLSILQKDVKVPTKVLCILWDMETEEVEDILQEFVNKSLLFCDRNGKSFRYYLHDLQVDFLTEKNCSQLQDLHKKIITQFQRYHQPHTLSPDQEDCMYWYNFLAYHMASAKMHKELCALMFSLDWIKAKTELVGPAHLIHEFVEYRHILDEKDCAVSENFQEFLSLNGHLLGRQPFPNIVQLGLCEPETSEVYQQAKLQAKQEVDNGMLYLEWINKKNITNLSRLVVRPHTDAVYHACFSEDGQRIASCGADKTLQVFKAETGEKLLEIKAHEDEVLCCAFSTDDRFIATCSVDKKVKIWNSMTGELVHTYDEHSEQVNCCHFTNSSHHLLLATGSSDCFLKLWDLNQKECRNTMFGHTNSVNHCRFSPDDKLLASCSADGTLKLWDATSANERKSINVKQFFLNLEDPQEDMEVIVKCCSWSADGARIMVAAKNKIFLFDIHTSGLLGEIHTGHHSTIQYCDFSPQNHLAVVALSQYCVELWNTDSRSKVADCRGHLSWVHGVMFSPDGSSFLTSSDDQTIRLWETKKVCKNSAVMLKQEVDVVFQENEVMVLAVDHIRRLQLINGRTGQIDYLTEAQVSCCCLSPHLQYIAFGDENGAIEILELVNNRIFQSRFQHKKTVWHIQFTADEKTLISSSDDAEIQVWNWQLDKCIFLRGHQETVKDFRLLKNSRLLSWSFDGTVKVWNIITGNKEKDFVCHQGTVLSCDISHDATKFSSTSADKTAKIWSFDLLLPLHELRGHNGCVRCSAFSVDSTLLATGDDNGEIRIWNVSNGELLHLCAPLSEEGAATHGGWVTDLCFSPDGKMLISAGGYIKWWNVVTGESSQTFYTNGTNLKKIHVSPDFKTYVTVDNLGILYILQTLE

[12] = target: 26S proteasome non-ATPase regulatory subunit 14 (Homo sapiens, UniProt O00487); assay: inhibition of proteasome subunit RPN11 – biochemical, fluorescence polarization, uHTS hits, confirmation (AID 602368); type: functional
[13] = target: 72 kDa type IV collagenase (Homo sapiens, UniProt P08253); assay: Dose Response validation of uHTS RPN11 inhibitor hits using a MMP-2 Fluorescence assay.; type: functional
[14] = target: Prothrombin (Bos taurus, UniProt P00735); assay: thrombin protease inhibitors – biochemical, fluorescence polarization, uHTS hits, dose response (AID 602369); type: functional
[15] = system: Streptococcus sp. 'group A'; assay: Streptococcus pyogenes SK(-)GAS viability under kanamycin – luminescence, BacTiterGlo, confirmation, counter-screen for streptokinase expression inhibitor project, dose response (AID 1900); type: functional, organism-based
[16] = system: Streptococcus; assay: GAS UMAA2166 growth inhibition – luminescence, BacTiterGlo, counter-screen for streptokinase expression inhibitor project, dose response (AID 1915); type: functional, organism-based;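 note: potency for reduction of bacterial viability or growth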
[17] = target: T6, Peroxisome proliferator-activated receptor gamma/Nuclear receptor coactivator 2 (Homo sapiens, UniProt P37231); type: functional
[18] = target: T7, Peroxisome proliferator-activated receptor gamma/Nuclear receptor coactivator 1 (Homo sapiens, UniProt P37231); type: functional
[19] = target: T8, Peroxisome proliferator-activated receptor gamma/Nuclear receptor coactivator 3 (Homo sapiens, UniProt P37231); type: functional
[20] = target: Heat shock protein HSP 90-alpha (Homo sapiens, UniProt P07900); type: functional, organism-based
[21] = system: H9c2; assay: cells; type: functional, cell-based; conditions: Rattus norvegicus, H9c2, Myocardium;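 note: confirmatory concentration-response retest of ultra-high-throughput screening hits for modulation of myocardial damage; cell death induced by hydrogen peroxide oxidative stress; compound pretreatment for 60 min then peroxide exposure for 2 h; potency is for protecting the cells against peroxide damage rather than for killing them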
[22] = target: T7, Peroxisome proliferator-activated receptor gamma/Nuclear receptor coactivator 1; assay: TR-FRET dose response biochemical High Throughput Screening assay for agonists of the steroid receptor coactivator 1 (SRC-1) recruitment by the peroxisome proliferator-activated receptor gamma (PPAR gamma): non-selective agonists. [Related pubchem assays (depositor defined):AID1300, AID1808, AID504735, AID631]; type: protein assay
[23] = target: T8, Peroxisome proliferator-activated receptor gamma/Nuclear receptor coactivator 3; assay: TR-FRET dose response biochemical High Throughput Screening assay for agonists of the steroid receptor coactivator 3 (SRC-3) recruitment by the peroxisome proliferator-activated receptor gamma (PPAR gamma): non-selective agonists. [Related pubchem assays: 1301 (Confirmation screen.), 1048 (Primary screen.)]; type: functional
[24] = target: T6, Peroxisome proliferator-activated receptor gamma/Nuclear receptor coactivator 2; assay: TR-FRET dose response biochemical High Throughput Screening assay for agonists of the steroid receptor coactivator 2 (SRC-2) recruitment by the peroxisome proliferator-activated receptor gamma (PPAR gamma): non-selective agonists. [Related pubchem assays: 1297, 1032 ]; type: functional

T8 sequence (P37231 whole entry): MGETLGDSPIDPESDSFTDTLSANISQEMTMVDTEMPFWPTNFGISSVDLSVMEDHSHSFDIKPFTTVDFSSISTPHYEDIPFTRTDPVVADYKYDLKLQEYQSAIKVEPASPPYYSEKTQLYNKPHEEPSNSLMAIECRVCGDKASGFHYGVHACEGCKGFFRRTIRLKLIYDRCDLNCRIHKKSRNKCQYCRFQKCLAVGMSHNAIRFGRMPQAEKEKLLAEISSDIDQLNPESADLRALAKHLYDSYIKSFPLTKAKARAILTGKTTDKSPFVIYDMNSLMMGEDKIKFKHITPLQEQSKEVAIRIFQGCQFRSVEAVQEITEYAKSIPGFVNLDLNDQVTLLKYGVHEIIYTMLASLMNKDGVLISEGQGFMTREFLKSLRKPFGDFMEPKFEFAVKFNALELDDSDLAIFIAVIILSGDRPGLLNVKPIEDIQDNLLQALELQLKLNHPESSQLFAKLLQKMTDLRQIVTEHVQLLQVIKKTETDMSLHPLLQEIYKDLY
T8 sequence (Q9Y6Q9 whole entry, further chain): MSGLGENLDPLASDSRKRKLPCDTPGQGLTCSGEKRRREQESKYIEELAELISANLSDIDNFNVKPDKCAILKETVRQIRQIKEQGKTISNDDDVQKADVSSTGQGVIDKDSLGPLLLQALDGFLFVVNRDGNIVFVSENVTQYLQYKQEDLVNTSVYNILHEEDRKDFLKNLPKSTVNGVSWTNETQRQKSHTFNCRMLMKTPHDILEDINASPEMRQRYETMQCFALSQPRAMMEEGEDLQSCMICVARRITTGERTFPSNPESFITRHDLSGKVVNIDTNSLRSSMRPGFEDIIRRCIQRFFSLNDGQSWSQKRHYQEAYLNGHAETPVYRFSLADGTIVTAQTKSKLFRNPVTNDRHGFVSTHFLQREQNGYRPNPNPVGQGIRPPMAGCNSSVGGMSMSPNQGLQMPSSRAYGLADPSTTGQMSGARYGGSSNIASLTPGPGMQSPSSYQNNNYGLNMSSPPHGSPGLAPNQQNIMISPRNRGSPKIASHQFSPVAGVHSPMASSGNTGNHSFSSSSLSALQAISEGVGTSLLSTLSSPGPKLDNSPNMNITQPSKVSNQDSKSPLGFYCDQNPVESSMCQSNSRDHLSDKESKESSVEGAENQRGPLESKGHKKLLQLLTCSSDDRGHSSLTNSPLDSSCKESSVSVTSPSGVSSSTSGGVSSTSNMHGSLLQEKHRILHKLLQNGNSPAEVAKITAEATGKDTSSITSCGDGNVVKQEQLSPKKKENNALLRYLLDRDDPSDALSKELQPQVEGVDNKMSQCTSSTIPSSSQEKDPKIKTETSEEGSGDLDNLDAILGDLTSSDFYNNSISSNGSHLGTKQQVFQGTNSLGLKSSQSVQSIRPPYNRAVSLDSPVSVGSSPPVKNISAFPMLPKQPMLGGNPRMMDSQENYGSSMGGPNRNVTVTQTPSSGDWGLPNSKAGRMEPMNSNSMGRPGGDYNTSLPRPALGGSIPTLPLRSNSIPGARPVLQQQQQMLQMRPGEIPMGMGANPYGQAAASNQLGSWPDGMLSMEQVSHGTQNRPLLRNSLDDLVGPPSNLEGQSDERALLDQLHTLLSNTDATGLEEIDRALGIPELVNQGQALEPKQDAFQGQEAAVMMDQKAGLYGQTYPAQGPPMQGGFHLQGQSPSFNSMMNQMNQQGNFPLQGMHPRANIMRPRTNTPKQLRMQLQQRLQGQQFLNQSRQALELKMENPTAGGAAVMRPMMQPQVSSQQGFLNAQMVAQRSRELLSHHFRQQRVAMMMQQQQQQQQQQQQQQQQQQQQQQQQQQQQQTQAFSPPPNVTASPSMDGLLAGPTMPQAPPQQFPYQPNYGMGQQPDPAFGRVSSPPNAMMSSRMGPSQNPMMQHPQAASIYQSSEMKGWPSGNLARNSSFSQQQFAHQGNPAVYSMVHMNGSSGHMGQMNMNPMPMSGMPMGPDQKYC
T6 sequence (P37231 whole entry): as the sequence (P37231 whole entry) above
T6 sequence (Q15596 whole entry, further chain): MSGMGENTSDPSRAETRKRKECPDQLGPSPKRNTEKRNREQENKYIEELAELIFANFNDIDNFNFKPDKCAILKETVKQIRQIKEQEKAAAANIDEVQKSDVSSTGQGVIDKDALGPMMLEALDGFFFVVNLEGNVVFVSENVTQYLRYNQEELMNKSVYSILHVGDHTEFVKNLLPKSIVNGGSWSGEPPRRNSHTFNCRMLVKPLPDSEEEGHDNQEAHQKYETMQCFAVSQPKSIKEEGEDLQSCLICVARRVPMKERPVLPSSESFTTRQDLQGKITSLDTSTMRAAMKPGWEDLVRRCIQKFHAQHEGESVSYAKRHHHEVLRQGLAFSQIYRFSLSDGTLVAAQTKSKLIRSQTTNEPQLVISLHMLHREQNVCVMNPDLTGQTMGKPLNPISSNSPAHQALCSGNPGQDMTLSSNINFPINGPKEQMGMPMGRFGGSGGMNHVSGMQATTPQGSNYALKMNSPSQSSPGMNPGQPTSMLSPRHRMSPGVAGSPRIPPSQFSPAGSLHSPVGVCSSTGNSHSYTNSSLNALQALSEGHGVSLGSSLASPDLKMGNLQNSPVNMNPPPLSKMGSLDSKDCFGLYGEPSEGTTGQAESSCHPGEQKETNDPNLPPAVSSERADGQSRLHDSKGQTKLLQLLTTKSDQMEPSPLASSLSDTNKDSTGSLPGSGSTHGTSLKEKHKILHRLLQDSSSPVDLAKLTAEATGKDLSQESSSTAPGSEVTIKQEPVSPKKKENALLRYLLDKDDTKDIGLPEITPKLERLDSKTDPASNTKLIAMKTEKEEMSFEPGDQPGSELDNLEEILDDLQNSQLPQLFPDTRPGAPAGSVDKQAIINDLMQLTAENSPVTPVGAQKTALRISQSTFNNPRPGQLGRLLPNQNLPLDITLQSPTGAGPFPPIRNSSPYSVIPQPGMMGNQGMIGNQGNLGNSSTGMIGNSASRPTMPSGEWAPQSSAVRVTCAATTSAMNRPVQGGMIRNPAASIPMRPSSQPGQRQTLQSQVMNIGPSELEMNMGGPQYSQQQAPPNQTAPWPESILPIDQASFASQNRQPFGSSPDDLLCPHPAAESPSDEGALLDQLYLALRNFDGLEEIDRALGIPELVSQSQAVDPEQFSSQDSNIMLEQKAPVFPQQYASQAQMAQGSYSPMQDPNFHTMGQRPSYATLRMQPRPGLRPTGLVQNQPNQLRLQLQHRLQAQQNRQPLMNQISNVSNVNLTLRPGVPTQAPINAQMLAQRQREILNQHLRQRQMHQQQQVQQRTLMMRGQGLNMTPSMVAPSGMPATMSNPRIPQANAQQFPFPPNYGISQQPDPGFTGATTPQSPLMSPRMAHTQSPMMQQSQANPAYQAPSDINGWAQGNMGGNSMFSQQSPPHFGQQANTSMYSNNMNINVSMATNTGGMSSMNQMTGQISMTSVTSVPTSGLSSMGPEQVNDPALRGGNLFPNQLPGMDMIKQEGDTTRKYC
Sequence of 26S proteasome non-ATPase regulatory subunit 14 (O00487 whole entry): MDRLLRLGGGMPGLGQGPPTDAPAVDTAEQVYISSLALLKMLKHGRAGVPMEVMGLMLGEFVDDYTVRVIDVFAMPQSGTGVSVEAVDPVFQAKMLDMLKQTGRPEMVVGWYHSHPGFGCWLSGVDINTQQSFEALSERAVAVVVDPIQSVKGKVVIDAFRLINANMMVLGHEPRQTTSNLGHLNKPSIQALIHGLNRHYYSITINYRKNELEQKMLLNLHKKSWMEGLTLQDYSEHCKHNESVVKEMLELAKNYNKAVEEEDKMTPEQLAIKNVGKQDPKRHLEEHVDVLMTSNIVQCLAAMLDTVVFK
Sequence of 72 kDa type IV collagenase (P08253 whole entry): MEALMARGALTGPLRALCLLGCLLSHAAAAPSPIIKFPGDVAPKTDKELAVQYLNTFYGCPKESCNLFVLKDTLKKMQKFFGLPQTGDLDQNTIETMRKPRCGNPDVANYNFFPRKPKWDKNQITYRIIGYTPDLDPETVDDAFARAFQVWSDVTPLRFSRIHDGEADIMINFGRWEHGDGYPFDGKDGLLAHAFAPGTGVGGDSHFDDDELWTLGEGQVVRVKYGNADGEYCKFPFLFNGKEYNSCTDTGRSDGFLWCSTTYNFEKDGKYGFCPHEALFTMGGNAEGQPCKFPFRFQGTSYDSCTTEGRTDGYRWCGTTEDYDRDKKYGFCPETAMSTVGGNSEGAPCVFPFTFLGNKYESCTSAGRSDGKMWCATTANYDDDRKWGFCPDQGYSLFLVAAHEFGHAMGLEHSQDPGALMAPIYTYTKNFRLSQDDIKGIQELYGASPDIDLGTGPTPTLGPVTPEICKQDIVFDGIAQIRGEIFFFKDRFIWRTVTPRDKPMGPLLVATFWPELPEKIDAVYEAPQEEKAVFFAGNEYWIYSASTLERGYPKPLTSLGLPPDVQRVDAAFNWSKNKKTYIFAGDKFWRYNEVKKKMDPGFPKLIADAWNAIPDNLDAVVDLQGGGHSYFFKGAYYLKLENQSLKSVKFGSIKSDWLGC

Compound: COCC(=O)Nc1nnc(Cc2ccc(OC)cc2)s1
- IC50 [1]: > 50 µM (not active)
- AC50 [2]: 111 µM (active)

Compound: CCN(CC)CCCn1c2c(c(SCC(=O)Nc3ccc(OC(F)(F)F)cc3)nc1=O)CCC2
- IC50 [3]: 7.92 µM (active)
- IC50 [4]: 6.21 µM (active)

Compound: C[C@@H]1CN([C@H](C)CO)C(=O)Cc2cc(NS(=O)(=O)c3ccccc3)ccc2O[C@H]1CN(C)Cc1ccc(Cl)c(Cl)c1
- AC50 [5]: 3.13 µM (active)

Compound: Cc1nc(N)sc1C(=O)N/N=C/c1c[nH]c2ccccc12
- IC50 [6]: > 20 µM (inactive)
- IC50 [7]: 1.33 µM (active)
- IC50 [8]: 1.25 µM (active)
- AC50 [9]: 55.1 µM (active)

Compound: C[C@@H]1CN([C@@H](C)CO)C(=O)c2cccc(NC(=O)Nc3ccc4c(c3)OCO4)c2O[C@H]1CN(C)Cc1ccc(Oc2ccccc2)cc1
- AC50 [5]: 1.92 µM (active)

Compound: COc1ccc2oc(C(=O)NCC(c3ccco3)N(C)C)c(C)c2c1 (stereo unspecified)
- IC50 [10]: 3.82 µM (active)

Compound: O=C(Cc1ccc(NC(=O)C2CCN(C(=O)C3CCCC3)CC2)cc1)Nc1cccc(C(=O)N2CCCCC2)c1
- IC50 [10]: 29.2 µM (inactive)

Compound: COc1ccc(NS(=O)(=O)c2ccc(C)c(NC(=O)CN3C(=O)NC4(CCCC4)C3=O)c2)cc1
- IC50 [6]: > 20 µM (inactive)
- IC50 [7]: 16.3 µM (active)
- IC50 [8]: > 20 µM (inactive)
- IC50 [11]: 23.2 µM (active)
- IC50 [12]: 3.31 µM (active)
- IC50 [13]: > 100 µM (inactive)
- IC50 [14]: 79.2 µM (active)

Compound: Cc1ccc(C[S+]([O-])Cc2ccc(C(=O)NC3CCCC(C)C3C)o2)cc1 (stereo unspecified)
- IC50 [3]: 9.8 µM (active)
- IC50 [4]: 7.23 µM (active)

Compound: CCn1cc(C(=O)O)c(=O)c2cc(F)c(N3CCN(C(S)=Nc4ccc(OC)cc4)CC3)cc21
- EC50 [15]: 2.27 µM (active)
- EC50 [16]: 7.71 µM (active)
- AC50 [2]: 2.52 µM (active)

Compound: Oc1c(Br)cc(Br)cc1/C=N/Cc1ccc(F)cc1
- EC50 [17]: 38.3 µM (not active)
- EC50 [18]: > 79.4 µM (not active)
- EC50 [19]: > 79.4 µM (not active)
- AC50 [20]: 6.15 µM (active)
- IC50 [3]: 9.21 µM (active)
- IC50 [21]: > 79 µM (inactive)
- IC50 [4]: 3.64 µM (active)

Compound: O=C(O)COc1ccc2c(c1Cl)N=S=N2
- EC50 [22]: 9.32 µM (active)
- EC50 [23]: 59 µM (not active)
- EC50 [24]: 12.5 µM (not active)

Compound: NS(=O)(=O)c1ccc(Nc2ccc([N+](=O)[O-])c3nonc23)cc1
- IC50 [12]: 39.7 µM (active)
- IC50 [13]: > 100 µM (inactive)
- IC50 [14]: 36.1 µM (active)

Compound: Cn1c(=O)cc(SCC(=O)Nc2ccc3c(c2)OCO3)c2ccccc21
- EC50 [22]: > 79.4 µM (inactive)
- EC50 [23]: > 79.4 µM (not active)
- EC50 [24]: > 79.4 µM (not active)

Compound: COc1ccc(C(=O)NC2(C(F)(F)F)C(=O)Nc3c2c(=O)[nH]c(=O)n3CCc2ccc(OC)c(OC)c2)cc1 (stereo unspecified)
- AC50 [2]: 25.4 µM (active)
